Test results reported in PubChem BioAssay AID1259407 (Chemical Carcinogenesis Research Information System (CCRIS), 2018).
Active and inactive are the calls of the source. The rule behind the calls is not given here.

Tested on: CCRIS mutagenicity, Ames/micronucleus/aberration tests
Assay: CCRIS mutagenicity studies
[1] = Test System: AMES SALMONELLA TYPHIMURIUM, Strain/Indicator: TA98, Metabolic Activation: HAMSTER, LIVER, S-9, AROCLOR 1254, Method: PREINCUBATION
[2] = Test System: AMES SALMONELLA TYPHIMURIUM, Strain/Indicator: TA98, Metabolic Activation: NONE, Method: PREINCUBATION
[3] = Test System: AMES SALMONELLA TYPHIMURIUM, Strain/Indicator: TA98, Metabolic Activation: RAT, LIVER, S-9, AROCLOR 1254, Method: PREINCUBATION
[4] = Test System: AMES SALMONELLA TYPHIMURIUM, Strain/Indicator: TA100, Metabolic Activation: RAT, LIVER, S-9, AROCLOR 1254, Method: PREINCUBATION
[5] = Test System: AMES SALMONELLA TYPHIMURIUM, Strain/Indicator: TA1535, Metabolic Activation: HAMSTER, LIVER, S-9, AROCLOR 1254, Method: PREINCUBATION
[6] = Test System: AMES SALMONELLA TYPHIMURIUM, Strain/Indicator: TA1535, Metabolic Activation: RAT, LIVER, S-9, AROCLOR 1254, Method: PREINCUBATION
[7] = Test System: AMES SALMONELLA TYPHIMURIUM, Strain/Indicator: TA1537, Metabolic Activation: HAMSTER, LIVER, S-9, AROCLOR 1254, Method: PREINCUBATION
[8] = Test System: AMES SALMONELLA TYPHIMURIUM, Strain/Indicator: TA1537, Metabolic Activation: RAT, LIVER, S-9, AROCLOR 1254, Method: PREINCUBATION
[9] = Test System: AMES SALMONELLA TYPHIMURIUM, Strain/Indicator: TA100, Metabolic Activation: NONE, Method: PREINCUBATION
[10] = Test System: AMES SALMONELLA TYPHIMURIUM, Strain/Indicator: TA1535, Metabolic Activation: NONE, Method: PREINCUBATION
[11] = Test System: AMES SALMONELLA TYPHIMURIUM, Strain/Indicator: TA98, Metabolic Activation: NONE, Method: STANDARD PLATE
[12] = Test System: AMES SALMONELLA TYPHIMURIUM, Strain/Indicator: TA100, Metabolic Activation: NONE, Method: STANDARD PLATE

Measured: mutagenic call

Nc1cc([N+](=O)[O-])ccc1O
inactive: [2] inactive; negative | Test System: AMES SALMONELLA TYPHIMURIUM, Strain/Indicator: TA98, Metabolic Activation: RAT, LIVER, S-9, AROCLOR 1254 (10%), Method: PREINCUBATION inactive; negative | [3] inactive; negative | Test System: AMES SALMONELLA TYPHIMURIUM, Strain/Indicator: TA100, Metabolic Activation: RAT, LIVER, S-9, AROCLOR 1254 (10%), Method: PREINCUBATION inactive; negative | [4] inactive; negative | Test System: AMES SALMONELLA TYPHIMURIUM, Strain/Indicator: TA1535, Metabolic Activation: HAMSTER, LIVER, S-9, AROCLOR 1254 (10%), Method: PREINCUBATION inactive; negative | [5] inactive; negative | Test System: AMES SALMONELLA TYPHIMURIUM, Strain/Indicator: TA1535, Metabolic Activation: RAT, LIVER, S-9, AROCLOR 1254 (10%), Method: PREINCUBATION inactive; negative | [6] inactive; negative | Test System: AMES SALMONELLA TYPHIMURIUM, Strain/Indicator: TA1537, Metabolic Activation: HAMSTER, LIVER, S-9, AROCLOR 1254 (10%), Method: PREINCUBATION inactive; negative | [7] inactive; negative | Test System: AMES SALMONELLA TYPHIMURIUM, Strain/Indicator: TA1537, Metabolic Activation: RAT, LIVER, S-9, AROCLOR 1254 (10%), Method: PREINCUBATION inactive; negative | [8] inactive; negative
active: End Point: IN VITRO CHROMOSOMAL ABERRATIONS, Test System: CHO CELLS, Metabolic Activation: NONE active; positive; precipitation occurred at all concentrations | End Point: IN VITRO CHROMOSOMAL ABERRATIONS, Test System: CHO CELLS, Metabolic Activation: RAT, LIVER, S-9, AROCLOR 1254 active; positive; precipitation occurred at both concentrations | Test System: AMES SALMONELLA TYPHIMURIUM, Strain/Indicator: TA98, Metabolic Activation: HAMSTER, LIVER, S-9, AROCLOR 1254 (10%), Method: PREINCUBATION active; positive | [1] active; positive | Test System: MOUSE LYMPHOMA, Strain/Indicator: L5178Y (TK+/TK-), Metabolic Activation: NONE, Method: SUSPENSION/PLATE active; positive

CCOc1ccc(NC(N)=O)cc1
inactive: [1] inactive; negative | [2] inactive; negative | [3] inactive; negative | Test System: AMES SALMONELLA TYPHIMURIUM, Strain/Indicator: TA100, Metabolic Activation: HAMSTER, LIVER, S-9, AROCLOR 1254, Method: PREINCUBATION inactive; negative | [9] inactive; negative | [4] inactive; negative | [5] inactive; negative | [10] inactive; negative | [6] inactive; negative | [7] inactive; negative | Test System: AMES SALMONELLA TYPHIMURIUM, Strain/Indicator: TA1537, Metabolic Activation: NONE, Method: PREINCUBATION inactive; negative | [8] inactive; negative

CC(C)(C)NCC(O)COc1cccc2c1CCCC2=O (stereo not given)
inactive: [11] inactive; negative | Test System: AMES SALMONELLA TYPHIMURIUM, Strain/Indicator: TA98, Metabolic Activation: RAT, LIVER, S-9, AROCLOR 1254, Method: STANDARD PLATE inactive; negative | [12] inactive; negative | Test System: AMES SALMONELLA TYPHIMURIUM, Strain/Indicator: TA100, Metabolic Activation: RAT, LIVER, S-9, AROCLOR 1254, Method: STANDARD PLATE inactive; negative

CC(=O)O[C@H]1C[C@@H]2[C@@]3(C)CCCC(C)(C)[C@@H]3CC[C@@]2(C)[C@@H]2CC=C(C=O)[C@H](C=O)[C@@]12C
inactive: [11] inactive; negative | [12] inactive; negative | Test System: AMES SALMONELLA TYPHIMURIUM, Strain/Indicator: TA2637, Metabolic Activation: NONE, Method: STANDARD PLATE inactive; negative

CC(C)(C)c1ccc(O)c(O)c1
inactive: Test System: AMES SALMONELLA TYPHIMURIUM, Strain/Indicator: TA97, Metabolic Activation: HAMSTER LIVER S-9, AROCLOR 1254 (10% OR 30%), Method: PREINCUBATION inactive; negative | Test System: AMES SALMONELLA TYPHIMURIUM, Strain/Indicator: TA97, Metabolic Activation: NONE, Method: PREINCUBATION inactive; negative | Test System: AMES SALMONELLA TYPHIMURIUM, Strain/Indicator: TA97, Metabolic Activation: RAT LIVER S-9, AROCLOR 1254 (10% OR 30%), Method: PREINCUBATION inactive; negative | Test System: AMES SALMONELLA TYPHIMURIUM, Strain/Indicator: TA98, Metabolic Activation: HAMSTER LIVER S-9, AROCLOR 1254 (10% OR 30%), Method: PREINCUBATION inactive; negative | [2] inactive; negative | Test System: AMES SALMONELLA TYPHIMURIUM, Strain/Indicator: TA98, Metabolic Activation: RAT LIVER S-9, AROCLOR 1254 (10% OR 30%), Method: PREINCUBATION inactive; negative | Test System: AMES SALMONELLA TYPHIMURIUM, Strain/Indicator: TA100, Metabolic Activation: HAMSTER LIVER S-9, AROCLOR 1254 (10% OR 30%), Method: PREINCUBATION inactive; negative | [9] inactive; negative | Test System: AMES SALMONELLA TYPHIMURIUM, Strain/Indicator: TA100, Metabolic Activation: RAT LIVER S-9, AROCLOR 1254 (10% OR 30%), Method: PREINCUBATION inactive; negative | Test System: AMES SALMONELLA TYPHIMURIUM, Strain/Indicator: TA102, Metabolic Activation: HAMSTER LIVER S-9, AROCLOR 1254 (10% OR 30%), Method: PREINCUBATION inactive; negative | Test System: AMES SALMONELLA TYPHIMURIUM, Strain/Indicator: TA102, Metabolic Activation: NONE, Method: PREINCUBATION inactive; negative | Test System: AMES SALMONELLA TYPHIMURIUM, Strain/Indicator: TA102, Metabolic Activation: RAT LIVER S-9, AROCLOR 1254 (10% OR 30%), Method: PREINCUBATION inactive; negative | Test System: AMES SALMONELLA TYPHIMURIUM, Strain/Indicator: TA104, Metabolic Activation: HAMSTER LIVER S-9, AROCLOR 1254 (10% OR 30%), Method: PREINCUBATION inactive; negative | Test System: AMES SALMONELLA TYPHIMURIUM, Strain/Indicator: TA104, Metabolic Activation: NONE, Method: PREINCUBATION inactive; negative | Test System: AMES SALMONELLA TYPHIMURIUM, Strain/Indicator: TA104, Metabolic Activation: RAT LIVER S-9, AROCLOR 1254 (10% OR 30%), Method: PREINCUBATION inactive; negative | Test System: AMES SALMONELLA TYPHIMURIUM, Strain/Indicator: TA1535, Metabolic Activation: HAMSTER LIVER S-9, AROCLOR 1254 (10% OR 30%), Method: PREINCUBATION inactive; negative | [10] inactive; negative | Test System: AMES SALMONELLA TYPHIMURIUM, Strain/Indicator: TA1535, Metabolic Activation: RAT LIVER S-9, AROCLOR 1254 (10% OR 30%), Method: PREINCUBATION inactive; negative
